Test results from patent US8329904B2, “Azacyclic derivatives” (Hoffmann-La Roche Inc., priority 2009, dated 2012).

target: T1, human HSL (Homo sapiens, UniProt Q05469); experiment: Human Hormone-Sensitive Lipase (HSL) Enzyme Inhibition Assay; type: biochemical; settings: colorimetric assay, 2,3-dimercapto-1-propanol tributyrate (DMPT) substrate, 37° C. for 20 minutes, absorbance at 405 nm; read-out: HSL hum IC50
T1 construct: overlapping PCR to generate a full length human HSL ORF with a 3′-His6 tag; His6 (C); made in house; host or cells: High 5 insect cells (baculovirus, pFast-BAC)
T1 sequence (Q05469 1-1076): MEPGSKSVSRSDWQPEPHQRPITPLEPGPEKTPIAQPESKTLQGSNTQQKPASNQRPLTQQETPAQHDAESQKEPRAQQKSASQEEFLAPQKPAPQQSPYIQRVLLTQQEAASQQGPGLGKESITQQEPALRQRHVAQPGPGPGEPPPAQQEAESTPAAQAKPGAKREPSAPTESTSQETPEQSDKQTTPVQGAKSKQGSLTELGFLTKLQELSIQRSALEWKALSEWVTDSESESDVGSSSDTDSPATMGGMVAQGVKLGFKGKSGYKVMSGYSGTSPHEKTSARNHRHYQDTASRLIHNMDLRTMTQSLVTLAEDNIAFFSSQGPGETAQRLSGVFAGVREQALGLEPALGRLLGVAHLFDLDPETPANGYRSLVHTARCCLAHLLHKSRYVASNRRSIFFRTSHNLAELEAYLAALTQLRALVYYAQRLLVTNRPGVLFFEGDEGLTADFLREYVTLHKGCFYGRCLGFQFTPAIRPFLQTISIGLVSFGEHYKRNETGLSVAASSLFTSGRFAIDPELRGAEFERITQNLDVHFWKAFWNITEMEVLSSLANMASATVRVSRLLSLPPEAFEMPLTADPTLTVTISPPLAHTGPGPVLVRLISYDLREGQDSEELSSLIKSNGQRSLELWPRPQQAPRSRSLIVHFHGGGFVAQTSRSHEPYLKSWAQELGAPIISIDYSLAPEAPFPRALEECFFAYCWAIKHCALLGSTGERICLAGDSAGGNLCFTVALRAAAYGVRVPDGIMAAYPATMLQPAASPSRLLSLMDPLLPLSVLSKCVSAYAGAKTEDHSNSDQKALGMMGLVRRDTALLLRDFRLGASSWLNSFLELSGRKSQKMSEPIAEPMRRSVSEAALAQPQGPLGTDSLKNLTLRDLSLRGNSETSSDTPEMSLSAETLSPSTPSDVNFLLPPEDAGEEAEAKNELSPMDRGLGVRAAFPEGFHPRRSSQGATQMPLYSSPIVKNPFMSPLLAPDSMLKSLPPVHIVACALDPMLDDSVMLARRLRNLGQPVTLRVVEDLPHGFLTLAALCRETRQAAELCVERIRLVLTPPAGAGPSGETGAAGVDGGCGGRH
Method in brief: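 Colorimetric thioester hydrolysis: compounds in DMSO series mixed with DMPT (1.5 mM) in MOPS pH 7.2 with BSA, then baculovirus-expressed His6-tagged full-length human HSL added, 37° C, 20 min. DTNB plus detergents added, 15 min room temperature, absorbance at 405 nm.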

Row | SMILES | IC50 [nM]
1 | CN(C(=O)N1CCC2(CC1)CCN(c1ccc(OC(F)(F)F)cc1)C2=O)c1ccc(C(F)(F)F)cc1 [Example 299, 1-Oxo-2-(4-trifluoromethoxy-phenyl)-2,8-diaza-spiro[4.5]decane-8-carboxylic acid methyl-(4-trifluoromethyl-phenyl)-amide] | 170
2 | CN(C(=O)N1CCC2(CC1)CCN(c1ccc(OC(F)(F)F)cc1)C2=O)c1ccc(Cl)cc1 [Example 300, 1-Oxo-2-(4-trifluoromethoxy-phenyl)-2,8-diaza-spiro[4.5]decane-8-carboxylic acid (4-chloro-phenyl)-methyl-amide] | 60
3 | CN(C(=O)N1CCC2(CC1)CCN(c1ccc(OC(F)(F)F)cc1)C2=O)c1ccc(Cl)c(Cl)c1 [Example 301, 1-Oxo-2-(4-trifluoromethoxy-phenyl)-2,8-diaza-spiro[4.5]decane-8-carboxylic acid (3,4-dichloro-phenyl)-methyl-amide] | 110
4 | CN(C(=O)N1CCC2(CC1)CCN(c1ccc(OC(F)(F)F)cc1)C2=O)c1cccc(Cl)c1 [Example 302, 1-Oxo-2-(4-trifluoromethoxy-phenyl)-2,8-diaza-spiro[4.5]decane-8-carboxylic acid (3-chloro-phenyl)-methyl-amide] | 40
5 | CCCCN(CC)C(=O)N1CCC2(CC1)CCN(c1ccc(OC(F)(F)F)cc1)C2=O [Example 303, 1-Oxo-2-(4-trifluoromethoxy-phenyl)-2,8-diaza-spiro[4.5]decane-8-carboxylic acid butyl-ethyl-amide] | 140
6 | CCN(C(=O)N1CCC2(CC1)CCN(c1ccc(OC(F)(F)F)cc1)C2=O)C(C)C [Example 304, 1-Oxo-2-(4-trifluoromethoxy-phenyl)-2,8-diaza-spiro[4.5]decane-8-carboxylic acid ethyl-isopropyl-amide] | 80
7 | CCN(C(=O)N1CCC2(CC1)CCN(c1ccc(OC(F)(F)F)cc1)C2=O)C1CCCCC1 [Example 305, 1-Oxo-2-(4-trifluoromethoxy-phenyl)-2,8-diaza-spiro[4.5]decane-8-carboxylic acid cyclohexyl-ethyl-amide] | 140

Next, values leading:

Row | IC50 [nM] | SMILES
8 | 160 | CCN(Cc1ccccc1F)C(=O)N1CCC2(CC1)CCN(c1ccc(OC(F)(F)F)cc1)C2=O [Example 306, 1-Oxo-2-(4-trifluoromethoxy-phenyl)-2,8-diaza-spiro[4.5]decane-8-carboxylic acid ethyl-(2-fluoro-benzyl)-amide]
9 | 350 | CCN(Cc1ccncc1)C(=O)N1CCC2(CC1)CCN(c1ccc(OC(F)(F)F)cc1)C2=O [Example 307, 1-Oxo-2-(4-trifluoromethoxy-phenyl)-2,8-diaza-spiro[4.5]decane-8-carboxylic acid ethyl-pyridin-4-ylmethyl-amide]
10 | 50 | CCN(C(=O)N1CCC2(CC1)CCN(c1ccc(OC(F)(F)F)cc1)C2=O)c1cccc(C)c1 [Example 308, 1-Oxo-2-(4-trifluoromethoxy-phenyl)-2,8-diaza-spiro[4.5]decane-8-carboxylic acid ethyl-m-tolyl-amide]
11 | 120 | CCN(C(=O)N1CCC2(CC1)CCN(c1ccc(OC(F)(F)F)cc1)C2=O)c1ccc(Cl)cc1 [Example 309, 1-Oxo-2-(4-trifluoromethoxy-phenyl)-2,8-diaza-spiro[4.5]decane-8-carboxylic acid (4-chloro-phenyl)-ethyl-amide]
12 | 170 | CCN(Cc1ccccc1)C(=O)N1CCC2(CC1)CCN(c1ccc(OC(F)(F)F)cc1)C2=O [Example 310, 1-Oxo-2-(4-trifluoromethoxy-phenyl)-2,8-diaza-spiro[4.5]decane-8-carboxylic acid benzyl-ethyl-amide]
13 | 60 | CCN(C(=O)N1CCC2(CC1)CCN(c1ccc(OC(F)(F)F)cc1)C2=O)c1ccc(OC(F)(F)F)cc1 [Example 311, 1-Oxo-2-(4-trifluoromethoxy-phenyl)-2,8-diaza-spiro[4.5]decane-8-carboxylic acid ethyl-(4-trifluoromethoxy-phenyl)-amide]
14 | 80 | Cc1cccc(Cl)c1S(=O)(=O)N1CCC2(CCN(c3ccc(OC(F)(F)F)cc3)C2=O)CC1 [Example 312, 8-(2-Chloro-6-methyl-benzenesulfonyl)-2-(4-trifluoromethoxy-phenyl)-2,8-diaza-spiro[4.5]decan-1-one]
15 | 90 | CC(C)CN(C)C(=O)N1CCC2(CC1)CCN(c1ccc(C3CC3)cc1)C2=O [Example 313, 2-(4-Cyclopropyl-phenyl)-1-oxo-2,8-diaza-spiro[4.5]decane-8-carboxylic acid isobutyl-methyl-amide]
16 | 130 | CCCCN(C)C(=O)N1CCC2(CC1)CCN(c1ccc(C3CC3)cc1)C2=O [Example 314, 2-(4-Cyclopropyl-phenyl)-1-oxo-2,8-diaza-spiro[4.5]decane-8-carboxylic acid butyl-methyl-amide]
